Experimental data taken from US8791268B2, “Vanilloid receptor ligands, pharmaceutical compositions containing them, process for making them, and use thereof for treating pain and other conditions” (Gruenenthal GmbH, priority 2007, dated 2014).

How the values were obtained:
Assay type in all cases: cell-based
[1] = target: vanilloid receptor 1 (VR1/TRPV1) (Rattus norvegicus (Rat), UniProt O35433); assay: FLIPR Ca2+ influx assay on rat dorsal root ganglia cells, capsaicin stimulus (Pharmacological Method I)
vanilloid receptor 1 (VR1/TRPV1), sequence (O35433 whole entry): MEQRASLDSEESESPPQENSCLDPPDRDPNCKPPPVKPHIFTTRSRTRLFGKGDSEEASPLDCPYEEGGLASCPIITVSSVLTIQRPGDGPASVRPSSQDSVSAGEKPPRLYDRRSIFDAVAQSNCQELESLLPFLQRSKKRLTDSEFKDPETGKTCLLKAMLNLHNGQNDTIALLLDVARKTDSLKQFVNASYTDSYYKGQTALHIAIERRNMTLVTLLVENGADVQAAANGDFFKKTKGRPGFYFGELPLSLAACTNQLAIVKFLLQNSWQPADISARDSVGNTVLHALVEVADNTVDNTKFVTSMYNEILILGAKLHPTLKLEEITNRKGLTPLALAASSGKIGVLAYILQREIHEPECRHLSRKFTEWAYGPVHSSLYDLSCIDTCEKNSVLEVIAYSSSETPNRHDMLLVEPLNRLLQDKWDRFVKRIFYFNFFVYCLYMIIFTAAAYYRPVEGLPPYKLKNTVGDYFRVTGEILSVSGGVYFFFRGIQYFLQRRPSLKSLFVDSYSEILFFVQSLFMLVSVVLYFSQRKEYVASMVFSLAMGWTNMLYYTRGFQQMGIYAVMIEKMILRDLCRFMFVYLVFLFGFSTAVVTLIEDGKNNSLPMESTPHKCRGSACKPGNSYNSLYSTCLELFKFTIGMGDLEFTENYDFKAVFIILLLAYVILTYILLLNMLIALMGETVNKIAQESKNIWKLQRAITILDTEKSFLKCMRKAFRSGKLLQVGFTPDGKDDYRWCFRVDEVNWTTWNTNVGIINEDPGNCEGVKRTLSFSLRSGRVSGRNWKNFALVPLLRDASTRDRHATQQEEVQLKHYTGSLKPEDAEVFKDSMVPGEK
Source text: I. Functional Investigation on the Vanilloid Receptor 1 (VR1/TRPV1 Receptor)
The agonistic or antagonistic action of the substances to be investigated on the vanilloid receptor 1 (VR1/TRPV1) of the species rat can be determined using the following assay. According to this assay, the Ca^2+ influx through the receptor channel is quantified with the aid of a Ca^2+-sensitive dye (Type Fluo-4, Molecular Probes Europe BV, Leiden Netherlands) in a fluorescent imaging plate reader (FLIPR, Molecular Devices, Sunnyvale, USA).
Complete medium: 50 mL of HAMS F12 Nutrient Mixture (Gibco Invitrogen GmbH, Karlsruhe, Germany) with
10% by volume of FCS (fetal calf serum, Gibco Invitrogen GmbH, Karlsruhe, Germany, heat-inactivated);
2 mM of L-glutamine (Sigma, Munich, Germany);
1% by weight of AA solution (antibiotics/antimycotics solution, PAA, Pasching, Austria)
and 25 ng/mL of Medium NGF (2.5 S, Gibco Invitrogen GmbH, Karlsruhe, Germany) Cell culture plate: Poly-D-lysine-coated, black 96-well plates with a clear bottom (96-well black/clear plate, BD Biosciences, Heidelberg, Germany) are additionally coated with laminin (Gibco Invitrogen GmbH, Karlsruhe, Germany) by diluting laminin to a concentration of 100 μg/mL with PBS (Ca—Mg-free PBS, Gibco Invitrogen GmbH, Karlsruhe, Germany). Aliquots having a concentration of 100 μg/mL of laminin are taken and stored at −20° C. The aliquots are diluted with PBS in the ratio 1:10 to 10 μg/mL of laminin and in each case 50 μL of the solution is pipeted into a well of the cell culture plate. The cell culture plates are incubated at 37° C. for at least two hours, the supernatant solution is aspirated and the wells are in each case washed twice with PBS. The coated cell culture plates are stored with supernatant PBS and this is removed only directly before the addition of the cells.
Preparation of the Cells:
The vertebral column is removed from decapitated rats and this is laid directly in a cold, i.e. ice bath-surrounded, HBSS buffer (Hank's buffered saline solution, Gibco Invitrogen GmbH, Karlsruhe, Germany) and 1% by volume of an AA solution (antibiotics/antimycotics solution, PAA, Pasching, Austria) is added. The vertebral column is cut in two, longitudinally, and the vertebral canal is removed together with fascias. Subsequently, the dorsal root ganglia (DRGs) are removed and in turn stored in cold HBSS buffer to which 1% by volume of an AA solution has been added. The DRGs completely freed from blood residues and spinal nerves are in each case transferred to 500 μL of cold collagenase Type 2 (PAA, Pasching, Austria) and incubated at 37° C. for 35 minutes. After the addition of 2.5% by volume of trypsin (PAA, Pasching, Austria), the preparation is incubated at 37° C. for a further 10 minutes. On completion of incubation, the enzyme solution is carefully pipeted off and 500 μL of complete medium are added to the DRGs in each case. The DRGs are in each case repeatedly suspended, drawn through No. 1, No. 12, and No. 16 needles by means of a syringe and transferred to 50 mL Falcon tubes and these are filled to 15 mL with complete medium. The contents of each Falcon tube are in each case filtered through a 70 μm Falcon filter insert and centrifuged at 1200 rpm and RT for 10 minutes. The resulting pellet is in each case taken up in 250 μL of complete medium and the cell count is determined.
The number of cells in the suspension is adjusted to 3×10^5 per mL and in each case 150 μL of this suspension are added to a well of the cell culture plates coated as described above. The plates are allowed to stand at 37° C., 5% by volume of CO2 and 95% relative humidity for two to three days in an incubator. […]

vanilloid receptor (VR1) = vanilloid receptor (VR1) (Homo sapiens (Human), UniProt Q8NER1); assay: FLIPR Ca2+ influx assay on CHO-K1 cells transfected with the human VR1 gene, capsaicin stimulus (Pharmacological Method II)
vanilloid receptor (VR1), sequence (Q8NER1 whole entry): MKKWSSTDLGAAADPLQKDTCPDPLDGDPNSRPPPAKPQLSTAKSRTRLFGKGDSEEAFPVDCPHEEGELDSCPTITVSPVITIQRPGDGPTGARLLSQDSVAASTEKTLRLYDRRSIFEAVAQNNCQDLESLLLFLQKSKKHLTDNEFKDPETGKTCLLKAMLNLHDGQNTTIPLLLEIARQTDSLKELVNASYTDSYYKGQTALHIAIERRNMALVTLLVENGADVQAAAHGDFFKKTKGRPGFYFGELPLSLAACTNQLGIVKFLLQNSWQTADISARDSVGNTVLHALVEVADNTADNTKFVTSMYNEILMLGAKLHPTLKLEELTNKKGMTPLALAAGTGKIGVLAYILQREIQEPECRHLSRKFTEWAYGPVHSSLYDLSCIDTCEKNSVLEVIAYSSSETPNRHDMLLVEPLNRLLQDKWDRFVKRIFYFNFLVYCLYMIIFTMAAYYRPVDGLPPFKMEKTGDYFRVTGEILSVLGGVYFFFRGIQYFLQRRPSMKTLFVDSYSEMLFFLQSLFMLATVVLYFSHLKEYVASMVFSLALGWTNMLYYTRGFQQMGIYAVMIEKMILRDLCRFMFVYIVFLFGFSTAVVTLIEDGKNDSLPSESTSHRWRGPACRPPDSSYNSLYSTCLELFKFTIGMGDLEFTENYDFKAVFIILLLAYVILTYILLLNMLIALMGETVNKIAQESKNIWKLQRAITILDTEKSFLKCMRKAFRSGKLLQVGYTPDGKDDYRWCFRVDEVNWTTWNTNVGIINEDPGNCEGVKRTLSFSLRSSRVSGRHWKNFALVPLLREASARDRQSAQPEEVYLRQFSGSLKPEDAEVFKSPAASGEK
Protocol: Furthermore, preference may be given to compounds of the invention of the general formulas I, Ia, Ib and Ic, which in the FLIPR assay using CHO—K1 cells, which have been transfected with the human VR1 gene in a concentration below 2000 nM, preferably below 1000 nM, more preferably below 300 nM, even more preferably below 100 nM, still more preferably below 75 nM, very preferably below 50 nM and most preferably below 10 nM, cause a 50 percent displacement of capsaicin present in a concentration of 100 nM. In the FLIPR assay, the Ca^2+ influx is quantified with the aid of a Ca^2+-sensitive dye (type Fluo-4, Molecular Probes Europe BV, Leiden, Netherlands) in a fluorescent imaging plate reader (FLIPR, Molecular Devices, Sunnyvale, USA), as described below.
II. Functional Investigations on the Vanilloid Receptor (VR1)
The agonistic or antagonistic action of the substances to be examined on the vanilloid receptor (VR1) can alternatively be determined by the following assay. According to this assay the Ca^2+ influx through the canal is quantified with the aid of a Ca^2+-sensitive dye (type Fluo-4, Molecular Probes, Europe BV, Leiden, Netherlands) in a fluorescent imaging plate reader (FLIPR, Molecular Devices, Sunnyvale, USA).
Chinese hamster ovary cells (CHO—K1 cells, European Collection of Cell Cultures (ECACC) UK) are stably transfected with the VR1 gene. For carrying out functional investigations, these cells are plated on poly-D-lysine-coated, black 96-well plates with a clear bottom (BD Biosciences, Heidelberg, Germany) in a density of 25,000 cells/well. The cells are incubated overnight at 37° C. and 5% CO2 in a culture medium (Nutrient Mixture ‘am’s F12, 10% by volume of FCS (fetal calf serum), 18 μg/mL of L-proline). On the following day the cells are incubated with Fluo-4 (Fluo-4 2 μM, Pluronic F127 0.01 by volume, Molecular Probes in HBSS (Hank's buffered saline solution), Gibco Invitrogen GmbH, Karlsruhe, Germany) for 30 minutes at 37° C. The plates are then washed 3 times with HBSS buffer and, after another incubation over a period of 15 minutes at RT, are used in the FLIPR for Ca^2+ measurement. The Ca^2+-dependent fluorescence is measured prior to and following the addition of the substances being examined (wavelength λex=488 nm, λem=540 nm). Quantification is carried out by measuring the highest fluorescence intensity (PC, fluorescence counts) over time.
The FLIPR protocol consists of two substance additions. First of all, the substances to be tested (10 μM) are pipeted onto the cells and the Ca^2+ influx is compared with the control (capsaicin 10 μM) (percentage activation based on the Ca^2+ signal following addition of 10 μM of capsaicin). Following incubation over a period of 5 minutes 100 nM of capsaicin are applied and the influx of Ca^2+ is likewise determined.
Desensitizing agonists and antagonists lead to a suppression of the Ca^2+ influx. The percentage inhibition compared with the maximum inhibition achieved with 10 μM of capsaicin is calculated.
Based on the percentage displacement effected by different concentrations of the compounds of the general formula Ito be tested, IC50 inhibition concentrations that cause 50 percent displacement of capsaicin are calculated. Conversion using the Cheng Prusoff equation gave Ki values for the test substances (Cheng, Prusoff; Bioch. Pharmacol. 22, 3099-3108, 1973).
The affinity of the compounds of the invention for the vanilloid receptor 1 (VR1/TRPV1-Receptor) was detected as described above (Pharmacological Methods I and II respectively).

VR1/TRPV1 receptor = VR1/TRPV1 receptor (Homo sapiens (Human), UniProt Q8NER1); assay: Inhibition of human VR1/TRPV1 following pH-stimulus; settings: for inhibition at 5 µM / inhibition at 10 µM / inhibition at 1 µM: read-out: inhibition (in percent) following pH-stimulus (Human)
VR1/TRPV1 receptor, sequence (Q8NER1 whole entry): as above

[2] = ne = no effect, no reaction observed

SMILES | Ki [1] | Ki (vanilloid receptor (VR1)) | IC50 (Human) following pH-stimulus (VR1/TRPV1 receptor; [2]) | IC50 (VR1/TRPV1 receptor; [2]) | inhibition at 5 µM (VR1/TRPV1 receptor) | inhibition at 10 µM (VR1/TRPV1 receptor) | inhibition at 1 µM (VR1/TRPV1 receptor)
CC1CCN(c2nc(C(F)(F)F)ccc2CNC(=O)Cc2cc(F)ccc2F)CC1 [Example 7, 2-(2,5-Difluorophenyl)-N-(4-methyl-6′-trifluoromethyl-3,4,5,6-tetrahydro-2H-[1,2′]bipyridinyl-3′-ylmethyl)acetamide] | 63 nM | 30 nM | ne | – | – | – | –
CC1CCN(c2nc(C(F)(F)F)ccc2CNC(=O)Cc2c(F)cccc2F)CC1 [Example 6, 2-(2,6-Difluorophenyl)-N-(4-methyl-6′-trifluoromethyl-3,4,5,6-tetrahydro-2H-[1,2′]bipyridinyl-3′-ylmethyl)acetamide] | 118 nM | 38 nM | ne | – | – | – | –
CC1CCN(c2nc(C(F)(F)F)ccc2CNC(=O)Cc2cc(Br)cc(Br)c2)CC1 [Example 2, 2-(3,5-Dibromophenyl)-N-((2-(4-methylpiperidin-1-yl)-6-(trifluoromethyl)pyridin-3-yl)methyl)acetamide] | 60.1 nM | 40.6 nM | ne | – | – | – | –
CC1CCN(c2nc(C(F)(F)F)ccc2CNC(=O)Cc2cccc(F)c2)CC1 [Example 4, 2-(3-Fluorophenyl)-N-(4-methyl-6′-trifluoromethyl-3,4,5,6-tetrahydro-2H-[1,2′]bipyridinyl-3′-ylmethyl)acetamide] | 80 nM | 34 nM | ne | – | – | – | –
CC(=O)Nc1ccc(C(C)C(=O)NCc2ccc(C(F)(F)F)nc2N2CCC(C)CC2)cc1F (stereo not shown) [Example 18, 2-(4-Acetamido-3-fluorophenyl)-N-((2-(4-methylpiperidin-1-yl)-6-(trifluoromethyl)pyridin-3-yl)methyl)propanamide] | – | 25 nM | ne | – | – | – | –
CC1CCN(c2nc(C(F)(F)F)ccc2CNC(=O)C(C)c2cc(F)cc(F)c2)CC1 (stereo not shown) [Example 10, 2-(3,5-Difluorophenyl)-N-(4-methyl-6′-trifluoromethyl-3,4,5,6-tetrahydro-2H-[1,2′]bipyridinyl-3′-ylmethyl)propionamide] | – | 24.7 nM | ne | – | – | – | –

Now those with a lower Ki (vanilloid receptor (VR1)), led by results:

Ki [1] | Ki (vanilloid receptor (VR1)) | IC50 (Human) following pH-stimulus (VR1/TRPV1 receptor; [2]) | IC50 (VR1/TRPV1 receptor; [2]) | inhibition at 5 µM (VR1/TRPV1 receptor) | inhibition at 10 µM (VR1/TRPV1 receptor) | inhibition at 1 µM (VR1/TRPV1 receptor) | SMILES
3.4 nM | 9.6 nM | ne | – | – | – | – | CC1CCN(c2nc(C(F)(F)F)ccc2CNC(=O)C(C)c2cc(F)c(N)c(F)c2)CC1 (stereo not shown) [Example 26, 2-(4-Amino-3,5-difluorophenyl)-N-((2-(4-methylpiperidin-1-yl)-6-(trifluoromethyl)pyridin-3-yl)methyl)propanamide]
– | 0.7 nM | – | 158 nM | – | – | – | CC1CCN(c2nc(C(F)(F)F)ccc2CNC(=O)Cc2cc(Br)c(N)c(Br)c2)CC1 [Example 22, 2-(4-Amino-3,5-dibromophenyl)-N-(4-methyl-6′-trifluoromethyl-3,4,5,6-tetra-hydro-2H-[1,2′]bipyridinyl-3′-ylmethyl)acetamide]
– | 0.3 nM | – | – | 8% | 35% | – | CC1CCN(c2nc(C(F)(F)F)ccc2CNC(=O)Cc2cc(Br)c(O)c(Br)c2)CC1 [Example 23, 2-(3,5-Dibromo-4-hydroxyphenyl)-N-(4-methyl-6′-trifluoromethyl-3,4,5,6-tetra-hydro-2H-[1,2′]bipyridinyl-3′-ylmethyl)acetamide]
– | 0.1 nM | – | – | 4% | 38% | – | COc1cc(CC(=O)NCc2ccc(C(F)(F)F)nc2N2CCC(C)CC2)cc(Br)c1O [Example 21, 2-(3-Bromo-4-hydroxy-5-methoxyphenyl)-N-(4-methyl-6′-trifluoromethyl-3,4,5,6-tetrahydro-2H-[1,2′]bipyridinyl-3′-ylmethyl)acetamide]
– | 1.1 nM | – | – | 20% | 31% | 0% | CC1CCN(c2nc(C(F)(F)F)ccc2CNC(=O)C(C)c2cc(Br)c(O)c(Br)c2)CC1 (stereo not shown) [Example 19, 2-(3,5-Dibromo-4-hydroxyphenyl)-N-(4-methyl-6′-trifluoromethyl-3,4,5,6-tetra-hydro-2H-[1,2′]bipyridinyl-3′-ylmethyl)propionamide]
– | 0.9 nM | – | – | 10% | 27% | 0% | CC1CCN(c2nc(C(F)(F)F)ccc2CNC(=O)C(C)c2cc(Br)c(N)c(Br)c2)CC1 (stereo not shown) [Example 20, 2-(4-Amino-3,5-dibromophenyl)-N-(4-methyl-6′-trifluoromethyl-3,4,5,6-tetra-hydro-2H-[1,2′]bipyridinyl-3′-ylmethyl)propionamide]
– | 4.8 nM | ne | – | – | – | – | C=CC(=O)Nc1c(F)cc(C(C)C(=O)NCc2ccc(C(F)(F)F)nc2N2CCC(C)CC2)cc1I (stereo not shown) [Example 34, N-(2-Fluoro-6-iodo-4-(1-((2-(4-methylpiperidin-1-yl)-6-(trifluoromethyl)pyridin-3-yl)methylamino)-1-oxopropan-2-yl)phenyl)acrylamide]
